According to PMC5302928, “[^64Cu]XYIMSR-06: A dual-motif CAIX ligand for PET imaging of clear cell renal cell carcinoma” (Oncotarget, 2016):
Several values for one entry are separate records, joined by “and”; a condition that tells them apart may be missing. Equal values may be shown once.

How the values were obtained:
[1] = system: CAIX-expressing SK-RC-52 ccRCC tumor xenografts; assay: Biodistribution of [^64Cu]XYIMSR-06 in mice bearing SK-RC-52 xenografts; type: in vivo
Procedure: Animal experiments were performed in accordance with protocols approved by the Johns Hopkins Animal Care and Use Committee (ACUC). Six-week-old female NOD/SCID mice were purchased from the Animal Resource Core of the Sidney Kimmel Comprehensive Cancer Center of Johns Hopkins and were subcutaneously injected in the upper right flank with 1 × 10^6 SK-RC-52 cells in RPMI 1640 GlutaMAX™ media (Life Technologies, Frederick, MD) supplemented with 1% fetal bovine serum (FBS). Mice were monitored for tumor size and used for PET/CT imaging when the size of the tumor reached 100 mm^3.
Mice bearing SK-RC-52 xenografts within the upper right flank were injected intravenously with 740 kBq (20 μCi) of [^64Cu]XYIMSR-06 in 200 μL of PBS. For in vivo competition (binding specificity) studies, tumor-bearing mice were injected with 740 kBq (20 μCi) of [^64Cu]XYIMSR-06 and 200 nmole of 1 in 200 μL of PBS concurrently. At specific times after injection (1 h, 4 h, 8 h and 24 h), mice (n = 5) were sacrificed by cervical dislocation with blood immediately collected by cardiac puncture. Heart, lungs, pancreas, spleen, fat, brain, muscle, small intestines, liver, stomach, kidney, urinary bladder, and tumor were also collected. Each organ was weighed and the tissue radioactivity was measured with an automated gamma counter (1282 Compugamma CS, Pharmacia/ LKBNuclear, Inc., Mt. Waverly, Vic. Australia). The percentage of injected dose per gram of tissue (%ID/g) was calculated by comparison with samples of a standard dilution of the initial dose. All measurements were corrected for radioactive decay. Data are expressed as mean ± standard deviation (SD).

[2] = In vivo metabolism study, plasma radio-TLC; set-up: species or system NSG mice; conditions: for Percentage of intact radiotracer in plasma: 7.4 MBq i.v.
Procedure: PET acquisition times were: 5 min/bed (1 h) post-injection were developed using a mobile phase consisting of 45% of [Al18F]XYIMSR-04. PET images were co-registered acetonitrile, 55% water and 0.1% trifluoroacetic acid. The with the corresponding 360-slice CT images. Imaging TLC plate was dried and exposed to Kodak Biomax x-ray datasets were reconstructed using the 3D-FORE/2D-OSEM film (Fisher Scientific). Standard solutions had Rf value of iterative algorithm with 2 iterations and 16 subsets, using 0.6. The intensity of bans on the film were calculated with the manufacturer ’s software. Display of images utilized the Image J software (NIH, Bethesda, MD). The percentages Amide software (Dice Holdings, Inc. NY). The 1 h image of intact [64Cu]XYIMSR-06 in plasma were 86.2%, 98.3, is shown below (Supplementary Figure S2): and 100% for 0.5h, 1h, and 2h plasma samples, respectively.
Metabolism study REFERENCES
In vivo metabolism of [64Cu]XYIMSR-06 in NSG 1. Wichert M, Krall N, Decurtins W, Franzini RM, Pretto mice intravenously (tail vein) with 7.4 MBq (200 μCi) F, Schneider P, Neri D, Scheuermann J. Dual-display of [64Cu]XYIMSR-06 in 200 µL of PBS (pH = 7.0). One of small molecules enables the discovery of ligand pairs mouse was euthanized at 0.5, 1, and 2hr time points and facilitates affinity maturation. Nature chemistry. plasma was prepared by centrifugation of whole blood 2015;7:241-9. for 15 minutes at 2,500xg at 4°C. 5 uL of the plasma 2. D’Souza CA, McBride WJ, Sharkey RM, Todaro LJ, samples and control (7.4 kBq of [64Cu]XYIMSR-06) were Goldenberg DM. High-yielding aqueous 18F-labeling of spotted onto silica gel 60 RP-18 F254S glass TLC plates peptides via Al18F chelation. Bioconjugate chemistry.
(EMD Millipore Corp., Billerica, MA) and the plates 2011;22:1793-803. […]

[3] = 8 h+Block (co-injected 200 nmole of 1)
[4] = 24 h+Block (co-injected 200 nmole of 1)
[5] = one phase exponential decay fit

Structure (SMILES): CC(CCC(=O)NC(CC(=O)NC(CC(=O)NC(CCCCn1cc(CCCC(=O)Nc2nnc(S(N)(=O)=O)s2)nn1)C(=O)NCCOCCOCCNC(=S)Nc1ccc(CC2CN(CC(=O)O)CCN(CC(=O)[O-])CCN2CC(=O)[O-])cc1)C(=O)O)C(=O)O)(c1ccc(O)cc1)c1ccc(O)cc1.[64Cu+2] (stereo not shown) [[^64Cu]XYIMSR-06]
- Sm. intestine uptake [1, 3]: 0.38±0.06 %ID/g
- Spleen uptake [1, 3]: 0.14±0.02 %ID/g
- Stomach uptake [1, 3]: 0.69±0.18 %ID/g
- Tumor uptake [1, 3]: 2.39±0.24 %ID/g
- Tumor/Blood ratio [1, 3]: 32.0±3.8
- Tumor/kid (kidney) ratio [1, 3]: 1.3±10.2
- Tumor/mm (muscle) ratio [1, 3]: 53.0±12.6
- Effect of co-injection of 200 nmole of 1 on tumor uptake (binding specificity) ([1]; 8 h and 24 h): blocked tumor uptake
- All other tumor-to-organ ratios tested (other than kidney and lung) ([1]; 24 h): ≥ 10
- Bladder uptake ([1]; 24 h): 0.34±0.09 %ID/g
- Brain uptake ([1]; 24 h): 0.13±0.02 %ID/g
- Fat uptake ([1]; 24 h): 0.03±0.01 %ID/g
- Heart uptake ([1]; 24 h): 0.12±0.03 %ID/g
- Kidney (kid) uptake ([1]; 24 h): 0.90±0.12 %ID/g
- Liver uptake ([1]; 24 h): 0.38±0.03 %ID/g
- Lung uptake ([1]; 24 h): 1.27±0.38 %ID/g
- Muscle (mm) uptake ([1]; 24 h): 0.02±0.01 %ID/g
- Pancreas uptake ([1]; 24 h): 0.21±0.29 %ID/g
- Sm. intestine uptake ([1]; 24 h): 0.47±0.03 %ID/g
- Spleen uptake ([1]; 24 h): 0.09±0.01 %ID/g
- Stomach uptake ([1]; 24 h): 0.65±0.04 %ID/g
- Tumor uptake ([1]; 24 h): 6.2 %ID/g and 6.23±1.41 %ID/g
- Tumor-to-lung ratio ([1]; 24 h): 4.9
- Tumor/Blood ratio ([1]; 24 h): 142.6±115.8
- Tumor/kid (kidney) ratio ([1]; 24 h): 7.1 and 7.1±2.5
- Bladder uptake [1, 4]: 0.45±0.50 %ID/g
- Blood uptake [1, 4]: 0.01±0.08 %ID/g
- Brain uptake [1, 4]: 0.02±0.01 %ID/g
- Fat uptake [1, 4]: 0.01±0.01 %ID/g
- Heart uptake [1, 4]: 0.08±0.01 %ID/g
- Kidney (kid) uptake [1, 4]: 0.48±0.09 %ID/g
- Liver uptake [1, 4]: 0.42±0.04 %ID/g
- Lung uptake [1, 4]: 0.29±0.05 %ID/g
- Muscle (mm) uptake [1, 4]: 0.04±0.06 %ID/g
- Pancreas uptake [1, 4]: 0.07±0.02 %ID/g
- Sm. intestine uptake [1, 4]: 0.19±0.05 %ID/g
- Spleen uptake [1, 4]: 0.11±0.04 %ID/g
- Stomach uptake [1, 4]: 0.29±0.04 %ID/g
- Tumor uptake [1, 4]: 1.20±0.47 %ID/g
- Tumor/Blood ratio [1, 4]: 27.1±26.7
- Tumor/kid (kidney) ratio [1, 4]: 2.4±0.4
- Tumor/mm (muscle) ratio [1, 4]: 49.0±28.7
- Calculated half-life, Bladder [1, 5]: 116.2 h
- Calculated half-life, Blood [1, 5]: 2.153 h
- Calculated half-life, Brain [1, 5]: 0.860 h
- Calculated half-life, Fat [1, 5]: 4.666 h
- Calculated half-life, Heart [1, 5]: 2.293 h
- Calculated half-life, Kidney [1, 5]: 3.591 h
- Calculated half-life, Liver [1, 5]: 3.375 h
- Calculated half-life, Lung [1, 5]: 2.542 h
- Calculated half-life, Muscle [1, 5]: 3.035 h
- Calculated half-life, Pancreas [1, 5]: 2.330 h
- Calculated half-life, SK-RC-52 tumor [1, 5]: 996.1 h
- Calculated half-life, Small intestine [1, 5]: 3.322 h
- Calculated half-life, Spleen [1, 5]: 4.008 h
- Calculated half-life, Stomach [1, 5]: 3.397 h
- Radiotracer uptake within liver ([1]; within 24 h): no significant radiotracer uptake within liver
- Percentage of intact radiotracer in plasma ([2]; 0.5h plasma sample): 86.2%
- Percentage of intact radiotracer in plasma ([2]; 1h plasma sample): 98.3%
- Percentage of intact radiotracer in plasma ([2]; 2h plasma sample): 100%
- In vivo stability by blood metabolites (radio thin layer chromatography) ([2]; post-injection): stable up to 2 h post-injection
